This passage reports IC50 and Imax results from patent publication US12428396B2, “Fused pyridine ring derivative, preparation method therefor, and pharmaceutical use thereof” (priority 2019, dated 2025).

In this assay the target is T1, HIV-1 capsid protein (Human immunodeficiency virus type 1 group M subtype B, UniProt P12493).
T1 construct: made in house; host or cells: E. coli (pET30 vector)
In words: In vitro polymerization of HIV-1 capsid protein (His-CA/GST-CA, Eu cryptate/XL665 energy transfer). In kind it is biochemical, HIV-1 NL4-3. From the text:
• 1. MAb Anti GST-Eu cryptate (Cisbio) • 2. MAb Anti 6HIS-XL665 (Cisbio) • 3. His tag HIV-1 capsid protein (hereinafter referred to as His-CA) • 4. GST tag HIV-1 capsid protein (hereinafter referred to as GST-CA) • 5. 384-well unbound surface microplate, white (Corning) • 6. Microplate reader (BMG)
The HIV-1 capsid proteins aggregate spontaneously in high-salt solutions. Capsid protein sequences derived from HIV-1 NL4-3 strains (GeneBank AF324493.2) were separately tagged with 6His tag and GST tag sequences at the C-terminus, cloned into pET30 vectors, and expressed and separately tagged for expression in E. coli system and purified. His-CA and GST-CA were mixed at high-salt concentrations, and the level of polymerization of capsid proteins was detected using GST antibody labeled with Eu3+-Cryptate (energy donor) and His antibody labeled with XL665 (energy acceptor). Since the excitation spectrum of Eu3+-Cryptate overlapped with the excitation spectrum of XL665, when the capsid proteins with these two tags formed a poly complex, the energy donor and the energy acceptor could be drawn to a sufficiently close distance, the energy donor released part of the captured energy under the excitation of an external light source (such as a xenon lamp or a laser), with the emission wavelength being 620 nM, part of the resonance was transferred to the energy acceptor to excite the energy acceptor, with the emission wavelength being 665 nM, and an optical signal was generated, the signal intensity of which was in direct proportion to the degree of polymerization of the tag proteins.
His-CA was diluted to 2 μM in a clean tube with protein diluent (50 mM Tris-HCl, pH 8.0, 50 mM NaCl, 0.4 mM MgCl2, 0.05% Triton X-100, 2% glycerol) while MAb Anti 6HIS-XL665 at a final concentration of 260 nM was added; GST-CA was diluted to 20 nM with protein diluent in another clean tube while MAb Anti GST-Eu cryptate at a final concentration of 3.33 nM was added and incubated on ice for half an hour. Compounds were first formulated into a concentration of 20 mM with DMSO, then diluted to a first concentration of 2 mM with DMSO and serially 5-fold diluted to the 8th concentration. Control wells were set and added with DMSO, and serially-diluted compounds were then 20-fold diluted with protein diluent to 10-fold working concentrations. Preparation of capsid protein polymerization liquid at 2-fold concentration: 50 mM Tris-HCl, pH 8.0, 1 M NaCl, 800 mM KF; to a pre-cooled white round-bottomed 384-well plate were added 4 uL of His-CA-His antibody mixture, 4 uL of GST-CA-GST antibody mixture, 2 uL of the compounds at 10-fold concentration and 10 uL of capsid protein polymerization reaction liquid at 2-fold concentration, the plate was sealed with a light-shielding sealing plate membrane after uniformly mixing, and the reaction plate was placed in a 37° C. incubator for incubation for 2 h. After incubation, the samples were excited with an excitation light at 337 nM, and signal values at 620 nM and 665 nM were collected for detection, wherein Ratio values=(665 nM/620 nM signal)×10000 was calculated according to the signal values. IC50 values for compounds were calculated using Graphpad Prism software based on each concentration of the compounds and the corresponding Ratio values.

In turn, `CC(C)(C#Cc1nc([C@H](Cc2cc(F)cc(F)c2)NC(=O)Cn2nc(C(F)(F)F)c3c2C(F)(F)[C@@H]2C[C@H]32)c(-c2ccc(Cl)c3c(NS(C)(=O)=O)nn(CC(F)(F)F)c23)c2c1CCC2)S(C)(=O)=O` (atropisomer, axis not shown; (aR)) [Example 1-1, N—((S)-1-((R)-4-(4-chloro-3-(methanesulfonamide)-1-(2,2,2-trifluoroethyl)-1H-indazol-7-yl)-1-(3-methyl-3-(methylsulfonyl)but-1-yn-1-yl)-6,7-dihydro-5H-cyclopenta[c]pyridin-3-yl)-2-(3,5-difluorophenyl)ethyl)-2-((3bS,4aR)-5,5-difluoro-3-(trifluoromethyl)-3b,4,4a,5-tetrahydro-1H-cyclopropa[3,4]cyclopenta[1,2-c]pyrazol-1-yl)acetamide] came in with an IC50 of 9 nM. The Imax (37° C., 2 h incubation) is 100%.
